ChEMBL document CHEMBL3526037, “Evaluation of the relationship between sex, polymorphisms in CYP2C8 and CYP2C9, and pharmacokinetics of angiotensin receptor blockers” (Drug Metab Dispos, 2013)

Legend:
[1] = AUC in women plasma at 50 mg by LC/MS/MS analysis; format: ADME, organism-based; conditions: female, human
[2] = Clearance in human plasma expressing CYP2C9*1/*1 polymorphism at 50 mg by LC/MS/MS analysis; format: ADME, organism-based
[3] = Tmax in women plasma at 50 mg by LC/MS/MS analysis; format: ADME, organism-based; conditions: female, human
[4] = Clearance in human plasma expressing CYP2C8*3 allele carrier polymorphism at 50 mg by LC/MS/MS analysis; format: ADME, organism-based
[5] = Tmax in human plasma expressing CYP2C8*1/*1 polymorphism at 50 mg by LC/MS/MS analysis; format: ADME, organism-based
[6] = Half life in human plasma expressing CYP2C9*2 allele carrier polymorphism at 50 mg by LC/MS/MS analysis
[7] = AUC in human plasma expressing CYP2C9*3 allele carrier polymorphism at 50 mg by LC/MS/MS analysis; format: ADME, organism-based
[8] = Half life in men plasma at 50 mg by LC/MS/MS analysis; conditions: male, human
[9] = Cmax in men plasma at 50 mg by LC/MS/MS analysis; format: ADME, organism-based; parameters: dose 50 mg; conditions: male, human
[10] = Half life in human plasma expressing CYP2C8*3 allele carrier polymorphism at 50 mg by LC/MS/MS analysis
[11] = Cmax in human plasma expressing CYP2C9*1/*1 polymorphism at 50 mg by LC/MS/MS analysis; format: ADME, organism-based; parameters: dose 50 mg
[12] = AUC in human plasma expressing CYP2C8*3 allele carrier polymorphism at 50 mg by LC/MS/MS analysis; format: ADME, organism-based
[13] = Cmax in human plasma expressing CYP2C8*4 allele carrier polymorphism at 50 mg by LC/MS/MS analysis; format: ADME, organism-based; parameters: dose 50 mg
[14] = Clearance in men plasma at 50 mg by LC/MS/MS analysis; format: ADME, organism-based; conditions: male, human
[15] = Half life in human plasma expressing CYP2C8*4 allele carrier polymorphism at 50 mg by LC/MS/MS analysis
[16] = Cmax in human plasma expressing CYP2C8*1/*1 polymorphism at 50 mg by LC/MS/MS analysis; format: ADME, organism-based; parameters: dose 50 mg
[17] = Tmax in human plasma expressing CYP2C8*4 allele carrier polymorphism at 50 mg by LC/MS/MS analysis; format: ADME, organism-based
[18] = Half life in human plasma expressing CYP2C9*3 allele carrier polymorphism at 50 mg by LC/MS/MS analysis
[19] = Clearance in human plasma expressing CYP2C9*3 allele carrier polymorphism at 50 mg by LC/MS/MS analysis; format: ADME, organism-based
[20] = Clearance in human plasma expressing CYP2C8*1/*1 polymorphism at 50 mg by LC/MS/MS analysis; format: ADME, organism-based
[21] = Cmax in human plasma expressing CYP2C8*3 allele carrier polymorphism at 50 mg by LC/MS/MS analysis; format: ADME, organism-based; parameters: dose 50 mg
[22] = Tmax in human plasma expressing CYP2C9*3 allele carrier polymorphism at 50 mg by LC/MS/MS analysis; format: ADME, organism-based
[23] = Tmax in men plasma at 50 mg by LC/MS/MS analysis; format: ADME, organism-based; conditions: male, human
[24] = Tmax in human plasma expressing CYP2C8*3 allele carrier polymorphism at 50 mg by LC/MS/MS analysis; format: ADME, organism-based
[25] = Tmax in human plasma expressing CYP2C9*1/*1 polymorphism at 50 mg by LC/MS/MS analysis; format: ADME, organism-based
[26] = AUC in human plasma expressing CYP2C8*1/*1 polymorphism at 50 mg by LC/MS/MS analysis; format: ADME, organism-based
[27] = AUC in men plasma at 50 mg by LC/MS/MS analysis; format: ADME, organism-based; conditions: male, human
[28] = AUC in human plasma expressing CYP2C9*2 allele carrier polymorphism at 50 mg by LC/MS/MS analysis; format: ADME, organism-based
[29] = Clearance in human plasma expressing CYP2C9*2 allele carrier polymorphism at 50 mg by LC/MS/MS analysis; format: ADME, organism-based
[30] = Half life in human plasma expressing CYP2C9*1/*1 polymorphism at 50 mg by LC/MS/MS analysis
[31] = Clearance in women plasma at 50 mg by LC/MS/MS analysis; format: ADME, organism-based; conditions: female, human
[32] = Half life in human plasma expressing CYP2C8*1/*1 polymorphism at 50 mg by LC/MS/MS analysis
[33] = Half life in women plasma at 50 mg by LC/MS/MS analysis; conditions: female, human
[34] = Clearance in human plasma expressing CYP2C8*4 allele carrier polymorphism at 50 mg by LC/MS/MS analysis; format: ADME, organism-based
[35] = AUC in human plasma expressing CYP2C8*4 allele carrier polymorphism at 50 mg by LC/MS/MS analysis; format: ADME, organism-based
[36] = AUC in human plasma expressing CYP2C9*1/*1 polymorphism at 50 mg by LC/MS/MS analysis; format: ADME, organism-based
[37] = Tmax in human plasma expressing CYP2C9*2 allele carrier polymorphism at 50 mg by LC/MS/MS analysis; format: ADME, organism-based
[38] = Half life in women plasma at 25 to 320 mg by LC/MS/MS analysis; format: ADME, organism-based; conditions: female, human
[39] = Cmax in human plasma expressing CYP2C9*3 allele carrier polymorphism at 25 to 320 mg by LC/MS/MS analysis; format: ADME, organism-based
[40] = Tmax in human plasma expressing CYP2C9*3 allele carrier polymorphism at 25 to 320 mg by LC/MS/MS analysis; format: ADME, organism-based
[41] = AUC in men plasma at 25 to 320 mg by LC/MS/MS analysis; format: ADME, organism-based; conditions: male, human
[42] = Cmax in women plasma at 25 to 320 mg by LC/MS/MS analysis; format: ADME, organism-based; conditions: female, human
[43] = AUC in human plasma expressing CYP2C8*1/*1 polymorphism at 25 to 320 mg by LC/MS/MS analysis; format: ADME, organism-based
[44] = Tmax in human plasma expressing CYP2C8*4 allele carrier polymorphism at 25 to 320 mg by LC/MS/MS analysis; format: ADME, organism-based
[45] = Tmax in human plasma expressing CYP2C8*1/*1 polymorphism at 25 to 320 mg by LC/MS/MS analysis; format: ADME, organism-based
[46] = Half life in human plasma expressing CYP2C8*1/*1 polymorphism at 25 to 320 mg by LC/MS/MS analysis; format: ADME, organism-based
Homo sapiens [47] = species on record: Homo sapiens; assay: AUC in human plasma expressing CYP2C9*3 allele carrier polymorphism at 25 to 320 mg by LC/MS/MS analysis; format: ADME, organism-based; conditions: in vivo
[48] = Half life in human plasma expressing CYP2C9*3 allele carrier polymorphism at 25 to 320 mg by LC/MS/MS analysis; format: ADME, organism-based
[49] = Tmax in human plasma expressing CYP2C8*2 allele carrier polymorphism at 25 to 320 mg by LC/MS/MS analysis; format: ADME, organism-based
[50] = AUC in human plasma expressing CYP2C8*2 allele carrier polymorphism at 25 to 320 mg by LC/MS/MS analysis; format: ADME, organism-based
[51] = AUC in human plasma expressing CYP2C8*4 allele carrier polymorphism at 25 to 320 mg by LC/MS/MS analysis; format: ADME, organism-based
[52] = Tmax in human plasma expressing CYP2C8*3 allele carrier polymorphism at 25 to 320 mg by LC/MS/MS analysis; format: ADME, organism-based
[53] = Tmax in human plasma expressing CYP2C9*1/*1 polymorphism at 25 to 320 mg by LC/MS/MS analysis; format: ADME, organism-based
[54] = Half life in human plasma expressing CYP2C9*1/*1 polymorphism at 25 to 320 mg by LC/MS/MS analysis; format: ADME, organism-based
[55] = Cmax in human plasma expressing CYP2C9*1/*1 polymorphism at 25 to 320 mg by LC/MS/MS analysis; format: ADME, organism-based
Homo sapiens [56] = species on record: Homo sapiens; assay: Cmax in human plasma expressing CYP2C8*3 allele carrier polymorphism at 25 to 320 mg by LC/MS/MS analysis; format: ADME, organism-based; conditions: in vivo
[57] = AUC in human plasma expressing CYP2C9*2 allele carrier polymorphism at 25 to 320 mg by LC/MS/MS analysis; format: ADME, organism-based
[58] = Cmax in human plasma expressing CYP2C9*2 allele carrier polymorphism at 25 to 320 mg by LC/MS/MS analysis; format: ADME, organism-based
[59] = Cmax in human plasma expressing CYP2C8*1/*1 polymorphism at 25 to 320 mg by LC/MS/MS analysis; format: ADME, organism-based
[60] = AUC in women plasma at 25 to 320 mg by LC/MS/MS analysis; format: ADME, organism-based; conditions: female, human
[61] = Cmax in men plasma at 25 to 320 mg by LC/MS/MS analysis; format: ADME, organism-based; conditions: male, human
[62] = Half life in human plasma expressing CYP2C8*4 allele carrier polymorphism at 25 to 320 mg by LC/MS/MS analysis; format: ADME, organism-based
[63] = Tmax in men plasma at 25 to 320 mg by LC/MS/MS analysis; format: ADME, organism-based; conditions: male, human
[64] = AUC in human plasma expressing CYP2C9*1/*1 polymorphism at 25 to 320 mg by LC/MS/MS analysis; format: ADME, organism-based
[65] = AUC in human plasma expressing CYP2C8*3 allele carrier polymorphism at 25 to 320 mg by LC/MS/MS analysis; format: ADME, organism-based
[66] = Tmax in women plasma at 25 to 320 mg by LC/MS/MS analysis; format: ADME, organism-based; conditions: female, human
[67] = Cmax in human plasma expressing CYP2C8*2 allele carrier polymorphism at 25 to 320 mg by LC/MS/MS analysis; format: ADME, organism-based
[68] = Cmax in human plasma expressing CYP2C8*4 allele carrier polymorphism at 25 to 320 mg by LC/MS/MS analysis; format: ADME, organism-based
[69] = Half life in human plasma expressing CYP2C8*3 allele carrier polymorphism at 25 to 320 mg by LC/MS/MS analysis; format: ADME, organism-based
[70] = Half life in men plasma at 25 to 320 mg by LC/MS/MS analysis; format: ADME, organism-based; conditions: male, human
[71] = Tmax in human plasma expressing CYP2C9*2 allele carrier polymorphism at 25 to 320 mg by LC/MS/MS analysis; format: ADME, organism-based

Structure (SMILES): CCCCc1nc(Cl)c(CO)n1Cc1ccc(-c2ccccc2-c2nn[nH]n2)cc1 [LOSARTAN]
- AUC [1]: 519 ng·h/mL
- clearance [2]: 30 mL/min/kg
- Tmax [3]: 1.2 h
- clearance [4]: 31.7 mL/min/kg
- Tmax [5]: 1.3 h
- half-life [6]: 2.4 h
- AUC [7]: 637 ng·h/mL
- half-life [8]: 2.5 h
- Cmax [9]: 234 ng/mL
- half-life [10]: 2.5 h
- Cmax [11]: 258 ng/mL
- AUC [12]: 413 ng·h/mL
- Cmax [13]: 345 ng/mL
- clearance [14]: 27.7 mL/min/kg
- half-life [15]: 2.7 h
- Cmax [16]: 263 ng/mL
- Tmax [17]: 0.9 h
- half-life [18]: 3.1 h
- clearance [19]: 21.7 mL/min/kg
- clearance [20]: 28.3 mL/min/kg
- Cmax [21]: 231 ng/mL
- Tmax [22]: 1 h
- Tmax [23]: 1.2 h
- Tmax [24]: 1 h
- Tmax [25]: 1.3 h
- AUC [26]: 504 ng·h/mL
- AUC [27]: 455 ng·h/mL
- AUC [28]: 366 ng·h/mL
- clearance [29]: 31.7 mL/min/kg
- half-life [30]: 2.3 h
- clearance [31]: 30.3 mL/min/kg
- half-life [32]: 2.3 h
- half-life [33]: 2.4 h
- clearance [34]: 26.7 mL/min/kg
- AUC [35]: 494 ng·h/mL
- AUC [36]: 473 ng·h/mL
- Tmax [37]: 1.1 h

Structure (SMILES): CCCCC(=O)N(Cc1ccc(-c2ccccc2-c2nnn[nH]2)cc1)[C@H](C(=O)O)C(C)C
- half-life [38]: 9.4 h
- Cmax [39]: 4010 ng/mL
- Tmax [40]: 3 h
- AUC [41]: 38800 ng·h/mL
- Cmax [42]: 4910 ng/mL
- AUC [43]: 36500 ng·h/mL
- Tmax [44]: 2.8 h
- Tmax [45]: 3.3 h
- half-life [46]: 9.3 h
- AUC (Homo sapiens [47]): 31449 ng·h/mL
- half-life [48]: 9.9 h
- Tmax [49]: 3.1 h
- AUC [50]: 55100 ng·h/mL
- AUC [51]: 39600 ng·h/mL
- Tmax [52]: 3 h
- Tmax [53]: 3.3 h
- half-life [54]: 9.1 h
- Cmax [55]: 4880 ng/mL
- Cmax (Homo sapiens [56]): 4711 ng/mL
- AUC [57]: 38800 ng·h/mL
- Cmax [58]: 4840 ng/mL
- Cmax [59]: 4550 ng/mL
- AUC [60]: 38600 ng·h/mL
- Cmax [61]: 4590 ng/mL
- half-life [62]: 7.6 h
- Tmax [63]: 3.2 h
- AUC [64]: 40600 ng·h/mL
- AUC [65]: 37400 ng·h/mL
- Tmax [66]: 3.2 h
- Cmax [67]: 6140 ng/mL
- Cmax [68]: 4860 ng/mL
- half-life [69]: 9.4 h
- half-life [70]: 9.1 h
- Tmax [71]: 3 h
